Activity calls are given as the source filed them.

One assay deals with HeLa. In words: ATP-based viability loss in HeLa cells – cell-based, CellTiter-Glo luminescence, cherry-pick samples, cytotoxicity control for MITF activator project, dose response (AID 540259). The format is functional. The settings on record: Homo sapiens. In general terms: In ATP-based viability assays light output follows the ATP content of the culture.
Assay [1] has as its target T1, Polyadenylate-binding protein 1 (Homo sapiens, UniProt P11940). Briefly: MLLE binding blockers, Cy5 peptide tracer – biochemical, fluorescence polarization, Cy5-PAM2 peptide, secondary, miRNA deadenylation inhibitor project, dose response (AID 602260). The format is functional. Conditions: read-out: IC50_Mean. Background: Fluorescence polarisation rises when a labelled molecule tumbles more slowly, as on binding a larger partner.

The target in assay [2] is T1, Polyadenylate-binding protein 1. Briefly: MLLE domain peptide-binding blockers, IC50 – biochemical, fluorescence polarization, FITC-PAM2 peptide, dose response (AID 602259). The settings on record: read-out: IC50_Mean. It is filed as functional.
The nature of assay [3]: viability of PTEN-deleted HCT116 cells – cell-based, HCT116 PTEN knockout, dose response (AID 1047).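 Further: HCT116 colon tumor cells with PTEN knocked out; cells exposed to compound for 60 hours before readout; potency for loss of cell viability measured by luminescence.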 The format is functional.
Assay [4] can be described thus: viability of HCT116 lacking mutant beta-catenin – cell-based, human colon tumor, dose response (AID 1045).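 Further: HCT116 colon tumor cells with beta catenin knocked out; cells exposed to compound for 60 hours.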 The format is functional.
Another assay has as its target T2, Aminopeptidase N (Plasmodium falciparum FcB1/Columbia, UniProt O96935).
T2 sequence (O96935 whole entry): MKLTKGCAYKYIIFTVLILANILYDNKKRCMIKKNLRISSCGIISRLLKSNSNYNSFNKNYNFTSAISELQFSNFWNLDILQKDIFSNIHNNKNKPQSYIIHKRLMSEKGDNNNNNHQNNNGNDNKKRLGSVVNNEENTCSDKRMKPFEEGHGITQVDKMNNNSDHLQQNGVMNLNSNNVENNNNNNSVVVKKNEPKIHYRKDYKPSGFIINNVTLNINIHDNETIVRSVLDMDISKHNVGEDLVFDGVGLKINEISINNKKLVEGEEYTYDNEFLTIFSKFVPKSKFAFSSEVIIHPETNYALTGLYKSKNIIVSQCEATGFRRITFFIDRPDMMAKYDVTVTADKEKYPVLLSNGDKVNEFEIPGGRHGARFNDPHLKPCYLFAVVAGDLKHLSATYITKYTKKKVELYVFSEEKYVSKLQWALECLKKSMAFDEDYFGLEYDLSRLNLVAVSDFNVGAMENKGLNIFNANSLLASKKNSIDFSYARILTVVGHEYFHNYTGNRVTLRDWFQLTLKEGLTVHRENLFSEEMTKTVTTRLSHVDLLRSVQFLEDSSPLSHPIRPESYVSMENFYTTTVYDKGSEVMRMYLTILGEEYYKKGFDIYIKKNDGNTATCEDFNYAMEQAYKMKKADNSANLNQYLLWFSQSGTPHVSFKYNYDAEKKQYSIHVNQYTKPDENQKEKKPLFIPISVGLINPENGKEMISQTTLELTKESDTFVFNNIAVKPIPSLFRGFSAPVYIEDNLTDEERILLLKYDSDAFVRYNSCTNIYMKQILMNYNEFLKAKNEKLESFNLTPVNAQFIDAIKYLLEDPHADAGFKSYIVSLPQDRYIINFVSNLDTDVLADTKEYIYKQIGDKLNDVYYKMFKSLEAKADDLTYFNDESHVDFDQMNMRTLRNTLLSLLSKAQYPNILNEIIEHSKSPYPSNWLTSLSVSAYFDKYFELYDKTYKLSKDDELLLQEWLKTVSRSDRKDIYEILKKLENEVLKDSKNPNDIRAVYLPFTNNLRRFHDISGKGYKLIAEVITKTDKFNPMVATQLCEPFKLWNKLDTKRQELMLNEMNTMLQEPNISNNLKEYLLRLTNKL
Briefly: malaria alanyl aminopeptidase activity blockers – biochemical, fluorogenic H-Leu-NHMec substrate, 1536-well (AID 1445). Further details: species or system Plasmodium falciparum 3D7, 3D7.

Assay [5] deals with Induced myeloid leukemia cell differentiation protein Mcl-1 (Homo sapiens, UniProt Q07820). It is filed as functional.
Induced myeloid leukemia cell differentiation protein Mcl-1, sequence (Q07820 whole entry): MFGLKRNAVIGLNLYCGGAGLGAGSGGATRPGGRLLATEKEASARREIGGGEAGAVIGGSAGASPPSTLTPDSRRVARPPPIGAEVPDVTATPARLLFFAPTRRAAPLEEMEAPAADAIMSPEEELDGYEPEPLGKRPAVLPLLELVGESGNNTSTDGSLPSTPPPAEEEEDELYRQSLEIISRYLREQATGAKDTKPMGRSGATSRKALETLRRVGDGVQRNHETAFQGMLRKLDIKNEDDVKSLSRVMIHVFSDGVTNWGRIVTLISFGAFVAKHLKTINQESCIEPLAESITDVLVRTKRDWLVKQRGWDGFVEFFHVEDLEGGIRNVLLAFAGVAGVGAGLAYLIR
Assay [6] addresses T3, High affinity choline transporter 1 (Homo sapiens, UniProt Q9GZV3).
T3 sequence (Q9GZV3 whole entry): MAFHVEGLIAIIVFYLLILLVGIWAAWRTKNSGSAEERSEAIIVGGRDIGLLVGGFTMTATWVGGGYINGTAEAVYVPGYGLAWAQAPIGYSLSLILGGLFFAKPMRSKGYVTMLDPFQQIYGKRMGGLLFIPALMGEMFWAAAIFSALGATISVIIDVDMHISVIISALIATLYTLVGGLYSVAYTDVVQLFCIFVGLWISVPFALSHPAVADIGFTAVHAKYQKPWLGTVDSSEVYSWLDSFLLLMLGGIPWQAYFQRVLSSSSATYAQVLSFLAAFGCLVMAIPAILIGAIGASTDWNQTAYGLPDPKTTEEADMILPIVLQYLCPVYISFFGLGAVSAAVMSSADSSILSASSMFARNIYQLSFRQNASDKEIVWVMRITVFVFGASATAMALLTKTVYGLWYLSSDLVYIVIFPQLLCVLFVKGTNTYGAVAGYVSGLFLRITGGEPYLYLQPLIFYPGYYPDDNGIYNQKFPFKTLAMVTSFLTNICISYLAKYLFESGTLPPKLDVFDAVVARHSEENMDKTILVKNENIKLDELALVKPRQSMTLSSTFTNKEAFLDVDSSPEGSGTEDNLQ
Briefly: human choline transporter blockers, potency – cell-based, 5-point CRC, membrane potential dye, dose response (AID 504840). It is filed as functional.

A short description of assay [7]: NIH-3T3 fibroblast cytotoxicity, dose response, cytotoxicity control, cell-based, fluorescence, Alamar Blue, secondary assay (AID 2327).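 Further: NIH-3T3 mouse fibroblasts cultured with fluconazole at 8 µg/mL.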 The format is functional. (The colour change of resazurin is a common sign of viable cells or microbes.)
Assay [8] is described as follows: fluconazole-exposed Candida albicans growth modulators – fluorescence, retest, confirmation (AID 2467). The format is functional, cell-based.
Assay [9] can be described thus: THP-1 cell cytotoxicity, dose response, cytotoxicity control for non-replicating M. tuberculosis project (AID 489025). It is filed as functional.
A short description of the next assay: cells. The format is functional.
A further assay concerns the target T4, Protein skinhead-1 (Caenorhabditis elegans, UniProt P34707).
T4 sequence (P34707 whole entry): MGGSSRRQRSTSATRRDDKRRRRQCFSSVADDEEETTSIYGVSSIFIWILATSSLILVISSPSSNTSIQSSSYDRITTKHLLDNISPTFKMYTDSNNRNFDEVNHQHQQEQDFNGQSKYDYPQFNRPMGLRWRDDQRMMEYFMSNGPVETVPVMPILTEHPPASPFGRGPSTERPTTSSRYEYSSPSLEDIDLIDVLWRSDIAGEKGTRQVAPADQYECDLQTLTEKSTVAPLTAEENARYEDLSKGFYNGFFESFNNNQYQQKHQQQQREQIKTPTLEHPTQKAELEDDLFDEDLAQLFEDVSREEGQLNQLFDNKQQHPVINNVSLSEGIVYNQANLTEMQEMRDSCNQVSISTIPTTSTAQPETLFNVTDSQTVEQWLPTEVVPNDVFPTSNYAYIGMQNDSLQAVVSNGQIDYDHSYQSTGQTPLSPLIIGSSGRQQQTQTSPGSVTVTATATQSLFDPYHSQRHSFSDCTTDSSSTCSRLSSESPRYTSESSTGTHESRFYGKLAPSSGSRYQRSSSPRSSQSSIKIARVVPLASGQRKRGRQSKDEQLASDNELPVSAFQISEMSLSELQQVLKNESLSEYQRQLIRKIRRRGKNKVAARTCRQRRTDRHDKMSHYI
The format is functional.

The target of assay [10] is T5, Rac GTPase-activating protein 1 (Homo sapiens, UniProt Q9H0H5).
T5 sequence (Q9H0H5 whole entry): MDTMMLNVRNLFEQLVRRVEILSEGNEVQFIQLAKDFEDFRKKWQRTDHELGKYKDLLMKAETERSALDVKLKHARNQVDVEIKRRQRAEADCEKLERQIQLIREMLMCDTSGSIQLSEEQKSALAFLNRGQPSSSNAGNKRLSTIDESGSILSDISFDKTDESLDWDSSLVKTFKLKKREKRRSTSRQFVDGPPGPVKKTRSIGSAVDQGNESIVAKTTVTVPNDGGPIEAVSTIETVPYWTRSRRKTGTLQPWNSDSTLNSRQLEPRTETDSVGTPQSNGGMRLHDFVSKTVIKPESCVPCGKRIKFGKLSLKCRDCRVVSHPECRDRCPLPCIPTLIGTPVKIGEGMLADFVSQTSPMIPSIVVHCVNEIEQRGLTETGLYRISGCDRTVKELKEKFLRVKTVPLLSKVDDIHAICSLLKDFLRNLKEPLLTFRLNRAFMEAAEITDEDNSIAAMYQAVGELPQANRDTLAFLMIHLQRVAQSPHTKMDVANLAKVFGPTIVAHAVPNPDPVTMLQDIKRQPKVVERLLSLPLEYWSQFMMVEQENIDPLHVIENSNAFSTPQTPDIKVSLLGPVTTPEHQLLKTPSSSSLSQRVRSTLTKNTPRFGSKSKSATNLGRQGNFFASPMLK
Briefly: blockers of MgcRacGAP-driven Rac1 GTP hydrolysis – biochemical, ADP Hunter fluorescence, primary and confirmatory, confirmation (AID 624330). It is filed as functional.

A short description of assay [11]: blockers of HIV-1 envelope-mediated cell-cell fusion – cherry-pick, dose response (AID 652057). It is filed as functional, cell-based.
Assay [12] can be described thus: blockers of HIV-1 ZM109 envelope-driven cell-cell fusion – HeLa effector, CEM target cells, luciferase, cherry-pick, dose response (AID 652058).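 Further: luciferase signal from HIV-1 Env mediated cell-cell fusion of effector and target cells.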 It is filed as functional, cell-based.

T1 sequence (P11940 whole entry): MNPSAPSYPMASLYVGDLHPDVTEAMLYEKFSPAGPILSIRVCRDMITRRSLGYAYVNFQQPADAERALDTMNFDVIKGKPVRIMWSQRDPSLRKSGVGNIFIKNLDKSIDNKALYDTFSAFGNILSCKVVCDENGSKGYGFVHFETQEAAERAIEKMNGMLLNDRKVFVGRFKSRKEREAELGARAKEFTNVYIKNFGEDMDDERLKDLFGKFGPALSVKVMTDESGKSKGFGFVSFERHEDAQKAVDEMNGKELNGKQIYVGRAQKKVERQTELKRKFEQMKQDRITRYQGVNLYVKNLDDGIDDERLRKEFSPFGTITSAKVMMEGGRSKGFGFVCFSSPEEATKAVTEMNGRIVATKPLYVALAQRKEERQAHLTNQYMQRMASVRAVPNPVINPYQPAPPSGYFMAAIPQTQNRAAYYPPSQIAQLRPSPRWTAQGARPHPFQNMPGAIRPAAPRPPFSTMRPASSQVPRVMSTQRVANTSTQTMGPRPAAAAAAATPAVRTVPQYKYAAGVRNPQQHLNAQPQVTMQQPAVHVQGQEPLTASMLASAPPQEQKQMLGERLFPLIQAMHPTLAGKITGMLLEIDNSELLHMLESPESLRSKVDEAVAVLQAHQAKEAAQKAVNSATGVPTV

The AC50 is the concentration at which the activity in the assay is half-maximal. In the case of `COC(=O)C(C)N1C(=O)S/C(=C/c2cc(C)n(C(C)C)c2C)C1=O` (stereo unspecified), in the assay on HeLa, the AC50 was 52.9 µM (active). In the case of `CC1CCCCC1NC(=O)CN1C(=O)c2cccc(N)c2C1=O` (stereo unspecified), the IC50 in assay [1] was > 66 µM (inactive); in assay [2], 35.5 µM (inactive). As a reminder, the EC50 is the concentration that produces a half-maximal response. Regarding `CSc1ccccc1NC(=O)Nc1ccc(Cl)cc1`, the values for the concentration giving a half-maximal response (EC50) in [3] and in [4] were 68.5 µM (active) and 46.5 µM (active), respectively. For `COc1ccc(C(C(=O)NC2CCCCC2)N(CC2CCCO2)C(=O)C2COc3ccccc3O2)cc1OC` (stereo unspecified), the EC50 in [3] was 12.7 µM (active); in [4] it was 19.5 µM (active). With `COC(=O)CN1C(=O)C2(C(C#N)=C(N)Oc3[nH]nc(-c4cccs4)c32)c2ccccc21` (stereo unspecified), the IC50 at Aminopeptidase N was 36.7 µM (active).

As to `CCOc1ccccc1C(=O)N1CCN=C1SCc1cccnc1`, the IC50 in assay [1] and in assay [2] was > 66 µM (inactive) each time.

On to `COc1ccc(-c2ccc3ccccc3n2)cc1OC`, for which the AC50 with HeLa was 46.8 µM (active). For `COc1ccc(-c2nn(CCC(=O)O)cc2/C=C2\SC(N)=NC2=O)cc1OC`, in [5], the IC50 is 4.63 µM (active).

On to `CN1CCC(N(C)c2nc(-c3ccc([N+](=O)[O-])cc3)nc3ccccc23)CC1`, for which the EC50 was 5.17 µM (active) in assay [3] and 4.29 µM (active) in assay [4]. Besides, the IC50 in assay [5] is 3.99 µM (active). For `COc1ccccc1C(=O)/C=C/c1ccc(N2CCCCC2)c([N+](=O)[O-])c1`, the EC50 in assay [3] was 5.52 µM (active); in assay [4], 4.48 µM (active).

For the compound `O=C(CSc1n[nH]c(-c2ccccc2)n1)Nc1ncc(Br)cc1Br`, in [6], the IC50 is 14.5 µM (active). Consider `Cc1cc(OC(C)C(=O)Nc2ccc(S(=O)(=O)Nc3onc(C)c3C)cc2)cc(C)c1Cl` (stereo unspecified), for which the IC50 in assay [6] was 3.98 µM (active).

Turning to `COCC(C)n1c(SCC(=O)Nc2nccs2)nc2ccccc2c1=O` (stereo unspecified), the IC50 in assay [1] and in assay [2] was > 66 µM (inactive) in each case.

`CC(C)OCCCNC(=O)c1sc(=S)n(C)c1N`: the IC50 in [1] and in [2] was > 66 µM (inactive) in each case. For `CSC(=Nc1ccc(Cl)cc1)NS(=O)(=O)c1cccs1`, the EC50 in [7] was > 150 µM (inactive); in assay [8], 1.15 µM (active). A word on the CC50: it is the concentration at which the toxic effect on the cells reaches its halfway point. `c1ccc2sc(SCc3ccc(-c4nnco4)cc3)nc2c1`: the CC50 in assay [9] is > 40 µM (active). In addition, the IC50 is 27.4 µM (active) in “cells” and 32.7 µM (active) on Protein skinhead-1. On to `Cc1cccc(C)c1OCc1cc(C(=O)N2CCN(C3CCCC3)CC2)no1`, for which the IC50 in assay [6] is 19.1 µM (active); at Protein skinhead-1, > 100 µM (inactive). Take `CCc1nc(Nc2ccc(N3CCN(C(C)=O)CC3)cc2)c2oc3ccccc3c2n1`: the results for the IC50 in [5] and in [10] were 5.67 µM (not active) and 36.8 µM (active), respectively. On to `CN(C(=S)NC(=O)c1ccccc1)c1c(N)n(Cc2ccccc2)c(=O)[nH]c1=O`, for which the IC50 in assay [1] and in assay [2] was > 66 µM (inactive) throughout.

On to `COC(=O)[C@@]1(C)[C@H]2C(=O)N(Cc3ccccc3)C(=O)[C@H]2[C@H]2CN=C(SCC(=O)c3ccccc3)N21`, for which the IC50 in assay [1] and in assay [2] was > 66 µM (inactive) in each case. Consider `CC1=C(C(=O)Nc2cccc(C(=O)NC3CCCCC3C)c2)SCCO1` (stereo unspecified), for which, in assay [6], the IC50 is 13.2 µM (active). On to `O=C(NCc1ccccc1)[C@@H]1CCCN1C(=O)[C@@H]1CCCN1C(=O)c1cccc2ccccc12`, for which the values for the AC50 in assay [11] and in assay [12] were 54.2 µM (active) and 36 µM (active), respectively. For the compound `O=C(Cc1ccc(F)cc1)N/N=C/c1ccc(-c2ccc(Cl)c(C(=O)O)c2)o1`, the IC50 on Aminopeptidase N is 22.9 µM (active). In the case of `C/C(=N\N=C(N)N)c1ccc(Cl)cc1Cl`, the IC50 in assay [6] is 14.8 µM (active).

These data come from ChEMBL document CHEMBL1201862, “PubChem BioAssay data set” (2004).
